From patent US12612360B2 (Sanofi, priority 2020, dated 2026)

Target: T1, ERα (Homo sapiens, UniProt P03372)
T1 construct: host or cells: MCF7
T1 sequence (P03372 1-595): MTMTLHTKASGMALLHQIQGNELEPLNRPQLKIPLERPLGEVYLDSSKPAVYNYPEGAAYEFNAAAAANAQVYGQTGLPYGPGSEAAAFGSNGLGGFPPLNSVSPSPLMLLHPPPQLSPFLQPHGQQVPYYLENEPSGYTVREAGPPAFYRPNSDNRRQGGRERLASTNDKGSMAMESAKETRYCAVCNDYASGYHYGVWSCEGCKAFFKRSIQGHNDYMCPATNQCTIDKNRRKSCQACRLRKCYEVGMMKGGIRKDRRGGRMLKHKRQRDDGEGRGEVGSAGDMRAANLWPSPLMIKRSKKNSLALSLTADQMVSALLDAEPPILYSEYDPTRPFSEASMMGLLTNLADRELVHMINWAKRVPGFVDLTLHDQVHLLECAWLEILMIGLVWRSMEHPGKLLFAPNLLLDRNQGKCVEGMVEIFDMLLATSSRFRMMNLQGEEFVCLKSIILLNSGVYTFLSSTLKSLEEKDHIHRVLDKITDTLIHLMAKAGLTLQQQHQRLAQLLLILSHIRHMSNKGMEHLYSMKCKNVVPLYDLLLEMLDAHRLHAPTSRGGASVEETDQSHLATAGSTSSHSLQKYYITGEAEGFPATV
Test: Estrogen receptor degradation activity: breast cancer cell ERα in cell western assay (MCF7 cells)
Assay type: cell-based
Details: for % Degradation At 0.3 μM: 4 hours, relative to fulvestrant 0.1 μM positive control; for DC50: 4 hours post compound addition, concentration which degrades 50% of the estrogen receptor, read-out: Degradation IC50
Outline: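 In-cell western readout: ERα immunofluorescence (Alexa 488) normalised to DNA signal (Syto-64) after formalin fixation. Compounds dosed for 4 h on MCF7 cells in stripped-serum, phenol-red-free medium over nine 1:5 steps, 0.3 to […] final; fulvestrant 0.1 μM control. IC50 in nM for 50% ERα degradation.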

Row | Structure (SMILES) | % Degradation At 0.3 μM | DC50
1 | Cc1ccc(C2=C(c3ccc(C=C4CN(CCCF)C4)cc3)c3ccc(C(=O)O)cc3CCC2)c(Cl)c1 [Example 41, 8-(2-chloro-4-methylphenyl)-9-(4-((1-(3-fluoropropyl)azetidin-3-ylidene)methyl)phenyl)-6,7-dihydro-5H-benzo[7]annulene-3-carboxylic acid] | 92% | 0.2 nM
2 | O=C(O)c1ccc2c(c1)CCCC(c1c(F)cccc1Cl)=C2c1ccc(C=C2CN(CCCF)C2)cc1 [Example 42, 8-(2-chloro-6-fluorophenyl)-9-(4-((1-(3-fluoropropyl)azetidin-3-ylidene)methyl)phenyl)-6,7-dihydro-5H-benzo[7]annulene-3-carboxylic acid] | 91% | 0.2 nM
3 | O=C(O)c1ccc2c(c1)CCCC(c1ccc(F)cc1F)=C2c1ccc(C=C2CN(CCCF)C2)c(F)c1F [Example 43, 9-(2,3-difluoro-4-((1-(3-fluoropropyl)azetidin-3-ylidene)methyl)phenyl)-8-(2,4-difluorophenyl)-6,7-dihydro-5H-benzo[7]annulene-3-carboxylic acid] | 92% | 0.4 nM
4 | Cc1cc(C2=C(c3ccc(F)cc3C)CCCc3cc(C(=O)O)ccc32)ccc1C=C1CN(CCCF)C1.Cl [Example 44, 8-(4-fluoro-2-methylphenyl)-9-(4-((1-(3-fluoropropyl)azetidin-3-ylidene)methyl)-3-methylphenyl)-6,7-dihydro-5H-benzo[7]annulene-3-carboxylic acid hydrochloride] | 91% | 0.4 nM
5 | Cc1cc(C2=C(c3ccc(F)cc3C)CCCc3cc(C(=O)O)ccc32)c(C)cc1C=C1CN(CCCF)C1 [Example 45, 8-(4-fluoro-2-methylphenyl)-9-(4-((1-(3-fluoropropyl)azetidin-3-ylidene)methyl)-2,5-dimethylphenyl)-6,7-dihydro-5H-benzo[7]annulene-3-carboxylic acid] | 89% | 0.7 nM
6 | Cc1cc(F)ccc1C1=C(c2ccc(C=C3CN(CCCF)C3)c(C#N)c2)c2ccc(C(=O)O)cc2CCC1 [Example 46, 9-(3-cyano-4-((1-(3-fluoropropyl)azetidin-3-ylidene)methyl)phenyl)-8-(4-fluoro-2-methylphenyl)-6,7-dihydro-5H-benzo[7]annulene-3-carboxylic acid] | 94% | 6 nM
7 | O=C(O)c1ccc2c(c1)CCCC(c1cccc(Cl)c1F)=C2c1ccc(C=C2CN(CCCF)C2)cc1 [Example 47, 8-(3-chloro-2-fluorophenyl)-9-(4-((1-(3-fluoropropyl)azetidin-3-ylidene)methyl)phenyl)-6,7-dihydro-5H-benzo[7]annulene-3-carboxylic acid] | 91% | 0.3 nM
8 | Cc1cccc(C2=C(c3ccc(C=C4CN(CCCF)C4)cc3)c3ccc(C(=O)O)cc3CCC2)c1F [Example 48, 8-(2-fluoro-3-methylphenyl)-9-(4-((1-(3-fluoropropyl)azetidin-3-ylidene)methyl)phenyl)-6,7-dihydro-5H-benzo[7]annulene-3-carboxylic acid] | 95% | 0.3 nM
9 | O=C(O)c1ccc2c(c1)CCCC(c1ccc(C(F)(F)F)cc1F)=C2c1ccc(C=C2CN(CCCF)C2)cc1 [Example 49, 8-(2-fluoro-4-(trifluoromethyl)phenyl)-9-(4-((1-(3-fluoropropyl)azetidin-3-ylidene)methyl)phenyl)-6,7-dihydro-5H-benzo[7]annulene-3-carboxylic acid] | 98% | 0.3 nM
10 | O=C(O)c1ccc2c(c1)CCCC(c1ccc(C(F)(F)F)cc1Cl)=C2c1ccc(C=C2CN(CCCF)C2)cc1 [Example 50, 8-(2-chloro-4-(trifluoromethyl)phenyl)-9-(4-((1-(3-fluoropropyl)azetidin-3-ylidene)methyl)phenyl)-6,7-dihydro-5H-benzo[7]annulene-3-carboxylic acid] | 93% | 0.1 nM
11 | Cc1cc(F)c(C2=C(c3ccc(C=C4CN(CCCF)C4)cc3)c3ccc(C(=O)O)cc3CCC2)c(F)c1 [Example 51, 8-(2,6-difluoro-4-methylphenyl)-9-(4-((1-(3-fluoropropyl)azetidin-3-ylidene)methyl)phenyl)-6,7-dihydro-5H-benzo[7]annulene-3-carboxylic acid] | 95% | 0.4 nM
12 | O=C(O)c1ccc2c(c1)CCCC(c1ccc(F)cc1F)=C2c1c(F)cc(C=C2CN(CCCF)C2)cc1F [Example 52, 9-(2,6-difluoro-4-((1-(3-fluoropropyl)azetidin-3-ylidene)methyl)phenyl)-8-(2,4-difluorophenyl)-6,7-dihydro-5H-benzo[7]annulene-3-carboxylic acid] | 97% | 0.3 nM
13 | O=C(O)c1ccc2c(c1)CCCC(c1ccc(F)cc1F)=C2c1ccc(C=C2CN(CCCF)C2)c(F)c1 [Example 53, 8-(2,4-difluorophenyl)-9-(3-fluoro-4-((1-(3-fluoropropyl)azetidin-3-ylidene)methyl)phenyl)-6,7-dihydro-5H-benzo[7]annulene-3-carboxylic acid] | 94% | 0.3 nM
14 | O=C(O)c1ccc2c(c1)CCCC(c1ccc(F)cc1F)=C2c1ccc(C=C2CN(CCCF)C2)cc1 [Example 54, 8-(2,4-difluorophenyl)-9-(4-((1-(3-fluoropropyl)azetidin-3-ylidene)methyl)phenyl)-6,7-dihydro-5H-benzo[7]annulene-3-carboxylic acid] | 93% | 0.4 nM
15 | O=C(O)c1ccc2c(c1)CCCC(c1cccc(F)c1F)=C2c1ccc(C=C2CN(CCCF)C2)cc1 [Example 55, 8-(2,3-difluorophenyl)-9-(4-((1-(3-fluoropropyl)azetidin-3-ylidene)methyl)phenyl)-6,7-dihydro-5H-benzo[7]annulene-3-carboxylic acid] | 94% | 1 nM
16 | O=C(O)c1ccc2c(c1)CCCC(c1cccc(C(F)(F)F)c1F)=C2c1ccc(C=C2CN(CCCF)C2)cc1 [Example 56, 8-(2-fluoro-3-(trifluoromethyl)phenyl)-9-(4-((1-(3-fluoropropyl)azetidin-3-ylidene)methyl)phenyl)-6,7-dihydro-5H-benzo[7]annulene-3-carboxylic acid] | 93% | 0.2 nM
17 | Cc1ccc(C2=C(c3ccc(C=C4CN(CCCF)C4)cc3)c3ccc(C(=O)O)cc3CCC2)c(F)c1 [Example 57, 8-(2-fluoro-4-methylphenyl)-9-(4-((1-(3-fluoropropyl)azetidin-3-ylidene)methyl)phenyl)-6,7-dihydro-5H-benzo[7]annulene-3-carboxylic acid] | 93% | 0.2 nM
18 | O=C(O)c1ccc2c(c1)CCCC(c1ccc(Cl)cc1F)=C2c1ccc(C=C2CN(CCCF)C2)cc1 [Example 58, 8-(4-chloro-2-fluorophenyl)-9-(4-((1-(3-fluoropropyl)azetidin-3-ylidene)methyl)phenyl)-6,7-dihydro-5H-benzo[7]annulene-3-carboxylic acid] | 99% | 0.2 nM
19 | O=C(O)c1ccc2c(c1)CCCC(c1ccc(F)cc1F)=C2c1cc(F)c(C=C2CN(CCCF)C2)c(F)c1 [Example 59, 9-(3,5-difluoro-4-((1-(3-fluoropropyl)azetidin-3-ylidene)methyl)phenyl)-8-(2,4-difluorophenyl)-6,7-dihydro-5H-benzo[7]annulene-3-carboxylic acid] | 93% | 0.4 nM
20 | O=C(O)c1ccc2c(c1)CCCC(C1CCOCC1)=C2c1ccc(C=C2CN(CCCF)C2)cc1 [Example 60, 9-(4-((1-(3-Fluoropropyl)azetidin-3-ylidene)methyl)phenyl)-8-(tetrahydro-2H-pyran-4-yl)-6,7-dihydro-5H-benzo[7]annulene-3-carboxylic acid] | 91% | 2.3 nM
21 | Cc1cc(F)ccc1C1=C(c2cc(F)c(C=C3CN(CCCF)C3)cc2C)c2ccc(C(=O)O)cc2CCC1.Cl [Example 61, 8-(4-fluoro-2-methylphenyl)-9-(5-fluoro-4-((1-(3-fluoropropyl)azetidin-3-ylidene)methyl)-2-methylphenyl)-6,7-dihydro-5H-benzo[7]annulene-3-carboxylic acid hydrochloride] | 93% | 0.8 nM
22 | Cc1cc(F)ccc1C1=C(c2c(C)cc(C=C3CN(CCCF)C3)cc2F)c2ccc(C(=O)O)cc2CCC1.Cl [Example 62, 8-(4-fluoro-2-methylphenyl)-9-(2-fluoro-4-((1-(3-fluoropropyl)azetidin-3-ylidene)methyl)-6-methylphenyl)-6,7-dihydro-5H-benzo[7]annulene-3-carboxylic acid hydrochloride] | 99% | 0.5 nM
